Measured values from PMC2714422 (Journal of medicinal chemistry, 2009).
Entries after “also recorded” stand apart in the source; their conditions may differ.

Key:
[1] = system: SK-Mel cells; experiment: Cellular polyamine levels in SK-Mel cells, compound alone; type: cell-based, human; details: 10 µM for 24 hrs
[2] = hydrochloride salt form of 5; prior formulation work, ref not given; cited from earlier work
[3] = system: squamous cell carcinoma (SCC) tumors; experiment: K6/ODC transgenic mouse squamous cell carcinoma model; type: in vivo
[4] = system: MDA-MB-231 cells; experiment: Cellular polyamine depletion, PTI plus DFMO; type: cell-based, human; details: 5 days, 30 µM 5 or 0.1 µM 11 with 5.0 mM DFMO, 0.5 µM spermidine, 1.0 mM aminoguanidine
[5] = DFMO 0.5% in drinking water + 0.5 mg/kg 11 i.p. twice daily, 4 weeks

**Q.** For `CCCCCCCCCCCCCCCC(=O)NCCCC[C@H](N)C(=O)NCCCNCCCCNCCCN` [Compound 10, L-Lys-ε-(palmitoyl)-N^1-spermine], which “level of cellular polyamines, compound added alone” value [1] is on record?
**A.** none of these agents influenced the level of cellular polyamines

**Q.** With `NCCCC[C@@H](N)C(=O)NCCCNCCCCNCCCN` [Compound 5, D-Lys-Spm] as the compound, how does the “oral bioavailability, hydrochloride salt form” value [2] read?
**A.** < 1%

**Q.** Which results are given for `NCCC[C@](N)(C(=O)O)C(F)F` [DFMO, α-difluoromethylornithine, reference compound]?
**A.** tumor growth effect of DFMO alone ([3]; DFMO alone in drinking water): moderate tumor growth inhibitory effects; also recorded: weak effect; DFMO alone treated tumors that re-grew ([3]; DFMO alone, 6 weeks off-treatment after 4 week treatment): 11 of 12

**Q.** What does the source list for `CCCCCCCCCCCCCCCC(=O)NCCCC[C@@H](N)C(=O)NCCCNCCCCNCCCN` [Compound 11, D-Lys-ε-(palmitoyl)-N^1-spermine]?
**A.** polyamine levels of the cell, combination with DFMO [4]: potent reduction in the polyamine levels; toxicity at efficacious dose level ([3]; 11 at 0.5 mg/kg i.p. twice daily with DFMO, mice): no apparent toxicity; SCCs with complete or near-complete responses (>95% volume reduction) [3, 5]: 71%; number of SCCs with complete responses out of 17 [3, 5]: 9

**Q.** Which “level of cellular polyamines, compound added alone” value [1] does the source give for `CCCCCCCC(=O)NCCCC[C@H](N)C(=O)NCCCNCCCCNCCCN` [Compound 8] here?
**A.** none of these agents influenced the level of cellular polyamines
